Columns and labels:
TaFdcV = experiment: Cycloadduct formation with TaFdcV followed by UV-Vis spectroscopy; format: binding, Trichoderma atroviride; conditions: for adduct formation / binding, reversibility after desalting: UV-Vis spectrum before and after a desalting step
[1] = biological target: E. coli deoxyribose-phosphate aldolase (Escherichia coli, UniProt P0A6L0); conditions: Racker et al. 1951; Jennewein et al. 2006; cited from earlier work
TaFdc = experiment: Adduct formation with TaFdc wild-type followed by UV-Vis spectroscopy; conditions: UV-Vis spectrum before and after a desalting step

E. coli deoxyribose-phosphate aldolase, sequence (P0A6L0 whole entry): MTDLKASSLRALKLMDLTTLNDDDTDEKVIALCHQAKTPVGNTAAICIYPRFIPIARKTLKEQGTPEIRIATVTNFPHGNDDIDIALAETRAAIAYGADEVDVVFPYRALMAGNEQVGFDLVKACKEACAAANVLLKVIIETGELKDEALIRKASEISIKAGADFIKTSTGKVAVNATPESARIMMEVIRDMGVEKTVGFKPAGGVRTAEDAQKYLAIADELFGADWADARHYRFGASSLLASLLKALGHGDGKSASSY

| Compound | adduct formation / binding, reversibility after desalting (TaFdcV) | inhibition of E. coli deoxyribose-phosphate aldolase [1] | other results |
| --- | --- | --- | --- |
| CC#CC(=O)O [2-butynoic acid] | a covalent inhibitory adduct is formed | – | – |
| OC(O)C(Cl)(Cl)Cl [chloral hydrate] | – | inhibit | – |
| O=CCCl [chloroacetaldehyde] | – | efficiently inhibit | – |
| C/C=C/C(=O)O [crotonic acid] | a covalent inhibitory adduct is formed | – | inhibition of the enzyme ferulic acid decarboxylase (FDC) (TaFdcV; FDC variant evolved to decarboxylate 3-methylcrotonic acid, FIG.2): irreversible inhibitor |
| CCC/C=C/C(=O)O [hexenoic acid, trans-2-hexenoic acid] | irreversibly binds | – | adduct formation / binding, reversibility after desalting (TaFdc): irreversibly binds |
| NO [hydroxylamine] | – | inhibit | – |
| CCCCCCCCO [octanol] | – | inhibit | – |
| CCC=O [propionaldehyde] | – | inhibit | – |
| pentenoic acid | irreversibly binds | – | adduct formation / binding, reversibility after desalting (TaFdc): irreversibly binds |

— patent publication EP4144838A1, “ORGANISMS PRODUCING LESS CROTONIC ACID” (Global Bioenergies, priority 2021, dated 2023)
